From PubChem BioAssay AID330 (DTP/NCI, 2004)
Where “and” joins values, the source holds several entries; their conditions need not be identical. Identical values can stand only once. Toxic doses and inconclusive results are not listed. The calls were made as follows: active = survival T/C of 150% or more; inactive = T/C below 125% in these data.

System: P388 leukemia ip, CD2F1 mice, survival T/C
Assay: NCI In Vivo Anticancer Drug Screen. Data for tumor model P388 Leukemia (intraperitoneal) in CD2F1 (CDF1) mice
Conditions: endpoint: median survival time, higher = longer survival
Summary of the method: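 Mice carrying the transplanted tumor received test compound or vehicle. Survival was recorded in each group, and the value is the treated-group measurement divided by that of the vehicle-treated control group.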

[1] = dose: 25.0 mg/kg/injection, schedule: Q01DX005 (ip), vehicle: Klucel (hydroxypropylcellulose) (HPC)
[2] = dose: 50.0 mg/kg/injection, schedule: Q01DX005 (ip), vehicle: Klucel (hydroxypropylcellulose) (HPC)
[3] = dose: 100.0 mg/kg/injection, schedule: Q01DX005 (ip), vehicle: Klucel (hydroxypropylcellulose) (HPC)
[4] = dose: 200.0 mg/kg/injection, schedule: Q01DX005 (ip), vehicle: Klucel (hydroxypropylcellulose) (HPC)
[5] = dose: 50.0 mg/kg/injection, schedule: Q01DX005 (ip), vehicle: saline
[6] = dose: 100.0 mg/kg/injection, schedule: Q01DX005 (ip), vehicle: saline
[7] = dose: 60.0 mg/kg/injection, schedule: Q01DX005 (ip), vehicle: saline with Tween-80
[8] = dose: 120.0 mg/kg/injection, schedule: Q01DX005 (ip), vehicle: saline with Tween-80
[9] = dose: 50.0 mg/kg/injection, schedule: Q01DX009 (ip), vehicle: saline with Tween-80
[10] = dose: 100.0 mg/kg/injection, schedule: Q01DX009 (ip), vehicle: saline with Tween-80
[11] = dose: 200.0 mg/kg/injection, schedule: Q01DX009 (ip), vehicle: saline with Tween-80
[12] = dose: 25.0 mg/kg/injection, schedule: Q01DX009 (ip), vehicle: saline with Tween-80
[13] = dose: 50.0 mg/kg/injection, schedule: Q01DX009 (ip), vehicle: saline
[14] = dose: 100.0 mg/kg/injection, schedule: Q01DX009 (ip), vehicle: saline
[15] = dose: 200.0 mg/kg/injection, schedule: Q01DX009 (ip), vehicle: saline
[16] = dose: 25.0 mg/kg/injection, schedule: Q01DX001 (ip), vehicle: saline with Tween-80
[17] = dose: 50.0 mg/kg/injection, schedule: Q01DX005 (ip), vehicle: saline with Tween-80
[18] = dose: 100.0 mg/kg/injection, schedule: Q01DX005 (ip), vehicle: saline with Tween-80

Measured: T/C

O=C([O-])c1c[n+]2c(cc1C(=O)O)-c1cc3c(cc1CC2)OCO3
inactive: dose: 0.63 mg/kg/injection, schedule: Q01DX009 (ip), vehicle: distilled water + Tween-80 99 % of control | dose: 1.25 mg/kg/injection, schedule: Q01DX009 (ip), vehicle: distilled water + Tween-80 94 % of control | dose: 2.5 mg/kg/injection, schedule: Q01DX009 (ip), vehicle: distilled water + Tween-80 94 % of control | dose: 5.0 mg/kg/injection, schedule: Q01DX009 (ip), vehicle: distilled water + Tween-80 94 % of control | dose: 10.0 mg/kg/injection, schedule: Q01DX009 (ip), vehicle: distilled water + Tween-80 99 % of control | dose: 20.0 mg/kg/injection, schedule: Q01DX009 (ip), vehicle: distilled water + Tween-80 100 % of control

CC1(C)CCCC2(C)C3=C(CCC12)C(=O)OC3 (centres undefined)
inactive: [1] 101 % of control | [2] 102 % of control | [3] 100 % of control | [4] 100 % of control

CC(C)N[C@@H]1CCC[C@H]1O
inactive: dose: 100.0 mg/kg/injection, schedule: Q01DX001 (ip), vehicle: Klucel (hydroxypropylcellulose) (HPC) 105 % of control | dose: 200.0 mg/kg/injection, schedule: Q01DX001 (ip), vehicle: Klucel (hydroxypropylcellulose) (HPC) 113 % of control | dose: 400.0 mg/kg/injection, schedule: Q01DX001 (ip), vehicle: Klucel (hydroxypropylcellulose) (HPC) 115 % of control

Cc1cc(N/N=C/c2ccc([N+](=O)[O-])cc2)c2cc3c(cc2n1)OCO3
inactive: dose: 12.5 mg/kg/injection, schedule: Q01DX005 (ip), vehicle: Klucel (hydroxypropylcellulose) (HPC) 100 % of control | [1] 102 % of control | [2] 101 % of control and 104 % of control

COC1OC(=O)C(Cl)=C1N=[N+]=[N-] (centres undefined)
inactive: dose: 15.0 mg/kg/injection, schedule: Q01DX005 (ip), vehicle: Klucel (hydroxypropylcellulose) (HPC) 105 % of control | dose: 30.0 mg/kg/injection, schedule: Q01DX005 (ip), vehicle: Klucel (hydroxypropylcellulose) (HPC) 102 % of control | dose: 60.0 mg/kg/injection, schedule: Q01DX005 (ip), vehicle: Klucel (hydroxypropylcellulose) (HPC) 109 % of control

C=Cc1ccccc1-c1ccccc1C(=O)OC
inactive: dose: 25.0 mg/kg/injection, schedule: Q04DX003 (ip), vehicle: saline with Tween-80 100 % of control | dose: 50.0 mg/kg/injection, schedule: Q04DX003 (ip), vehicle: saline with Tween-80 101 % of control | dose: 100.0 mg/kg/injection, schedule: Q04DX003 (ip), vehicle: saline with Tween-80 99 % of control

Cc1nc2ccccc2c(=O)n1-c1ccc(-c2n[nH]c(=S)n2-c2ccccc2)cc1
inactive: [2] 105 % of control | [3] 110 % of control | [4] 102 % of control

O=C(O)c1cccc2c1Cc1ccccc1-2
inactive: [2] 94 % of control | [3] 92 % of control | [4] 88 % of control

CCOC(=O)/C(=C/c1ncnc2nc[nH]c12)C(F)(F)C(=O)OCC
inactive: dose: 25.0 mg/kg/injection, schedule: Q04DX003 (ip), vehicle: saline 97 % of control | dose: 50.0 mg/kg/injection, schedule: Q04DX003 (ip), vehicle: saline 100 % of control | dose: 100.0 mg/kg/injection, schedule: Q04DX003 (ip), vehicle: saline 99 % of control

CCCCCOC(=O)c1ccccc1OP(=O)(N(C)C)N(C)C
inactive: [5] 103 % of control | [6] 110 % of control

Nc1nccc(CCc2ccccc2)n1
inactive: [7] 101 % of control | [8] 95 % of control

COC(NC(N)=O)C(=O)O (centres undefined)
inactive: [9] 99 % of control | [10] 99 % of control | [11] 99 % of control

c1ccc(-c2ccc(-c3csnn3)cc2)cc1
inactive: dose: 12.5 mg/kg/injection, schedule: Q01DX009 (ip), vehicle: saline with Tween-80 100 % of control | [12] 95 % of control | [9] 91 % of control and 94 % of control | [10] 91 % of control | [11] 88 % of control

OCCN(CCO)N(CCO)CCO
inactive: [5] 96 % of control | [6] 97 % of control | dose: 200.0 mg/kg/injection, schedule: Q01DX005 (ip), vehicle: saline 97 % of control

Cc1cc(N2CCOCC2)n2c(nc3ccccc32)c1C#N
inactive: [7] 96 % of control | [8] 100 % of control

CCCCCCCCCCCCCCCCSc1nc2ccc(N=Cc3ccccc3O)cc2s1
inactive: dose: 100.0 mg/kg/injection, schedule: Q04DX003 (ip), vehicle: Klucel (hydroxypropylcellulose) (HPC) 92 % of control | dose: 200.0 mg/kg/injection, schedule: Q04DX003 (ip), vehicle: Klucel (hydroxypropylcellulose) (HPC) 90 % of control | dose: 400.0 mg/kg/injection, schedule: Q04DX003 (ip), vehicle: Klucel (hydroxypropylcellulose) (HPC) 91 % of control

CC1SC(c2ccc(Cl)cc2)N2C(=O)C(C)SC(c3ccc(Cl)cc3)N2C1=O (centres undefined)
inactive: [9] 87 % of control | [10] 86 % of control

CC(=O)Nc1ncnc2c(C3OC(COC(C)=O)C(OC(C)=O)C3OC(C)=O)[nH]nc12 (centres undefined)
inactive: [7] 105 % of control | [8] 95 % of control

OCC1(CO)COC2(CCCCC2)N1
inactive: [13] 107 % of control | [14] 101 % of control and 120 % of control | [15] 100 % of control and 124 % of control

CCCCN(CCCC)CC(O)c1cc(-c2ccc(Cl)cc2)nc2c(Cl)cc(Cl)cc12 (centres undefined)
inactive: dose: 60.0 mg/kg/injection, schedule: Q01DX005 (ip), vehicle: Klucel + Tween-80 100 % of control | dose: 120.0 mg/kg/injection, schedule: Q01DX005 (ip), vehicle: Klucel + Tween-80 88 % of control

O=C(/C=C/c1ccc(Cl)cc1)c1ccccc1O
inactive: [12] 98 % of control | [9] 103 % of control | [10] 107 % of control | [11] 100 % of control

CC1C2COCC2CC2OC21 (centres undefined)
inactive: dose: 6.25 mg/kg/injection, schedule: Q01DX001 (ip), vehicle: saline with Tween-80 109 % of control | dose: 12.5 mg/kg/injection, schedule: Q01DX001 (ip), vehicle: saline with Tween-80 100 % of control | [16] 104 % of control

O=c1ccc2ccc3occc(=O)c3c2o1
inactive: [17] 106 % of control | [18] 108 % of control | dose: 200.0 mg/kg/injection, schedule: Q01DX005 (ip), vehicle: saline with Tween-80 98 % of control

CC1=CCc2c(c(NS(=O)(=O)c3ccccc3)c3ccccc3c2NS(=O)(=O)c2ccccc2)C1
inactive: [16] 105 % of control | dose: 50.0 mg/kg/injection, schedule: Q01DX001 (ip), vehicle: saline with Tween-80 90 % of control | dose: 100.0 mg/kg/injection, schedule: Q01DX001 (ip), vehicle: saline with Tween-80 90 % of control

Cc1c(O)cnc2nn(-c3ccccc3)c(=N)n12
inactive: [7] 91 % of control | [8] 92 % of control | dose: 240.0 mg/kg/injection, schedule: Q01DX005 (ip), vehicle: saline with Tween-80 90 % of control

CN(C)c1ccc2[nH]c3c(C(=O)O)cc(=O)c(=O)c=3oc2c1
inactive: [17] 108 % of control | [18] 100 % of control

N#CC1(c2ccccc2)C(c2ccccc2)=CC(=C2C(=O)NC(=O)N(c3ccccc3)C2=O)C=C1c1ccccc1 (centres undefined)
inactive: [2] 100 % of control | [3] 104 % of control | [4] 98 % of control

O=[N+]([O-])[O-].OCCNCCNCC[OH2+].OCCNCCNCC[OH2+].[Co+2]
inactive: [13] 95 % of control | [14] 104 % of control | [15] 103 % of control
